# According to article PMC3161034 (BMC Cancer, 2011):
# Where two headings read alike, the source gives them in different places.
# How the values were obtained:
# [1] = test system: patients with solid tumors
# Procedure: The safety endpoint was the incidence of adverse events. Tumor response rate, as assessed by Response Evaluation Criteria in Solid Tumors (RECIST) in patients with measurable disease, was an exploratory endpoint.
# Enrollment of a minimum of six evaluable patients per cohort was planned. If patients discontinued the study before week 5 for any reason other than a DLT, additional patients could be enrolled to meet this goal. The selected motesanib doses (50 mg QD, 100 mg QD, 125 mg QD, and 75 mg BID) were based on the tolerability profiles of motesanib administered as monotherapy and in combination with gemcitabine that were obtained in previous studies. The BID dosing regimen is expected to achieve higher predose motesanib concentrations in the plasma than QD dosing owing to the higher total dose administered and more frequent dosing.
# Treatment continued until the end of week 48 (11 cycles), or until disease progression, death, or unacceptable toxicity occurred. Motesanib administration (in cohorts 1-4) began on day 2 of week 2 of the first cycle and continued throughout the study. Patients experiencing continuous clinical benefit (stable disease or response) at the end of 48 weeks were eligible to continue motesanib monotherapy under a separate protocol.
# Patients enrolled in cohort 1 received an initial dose of motesanib of 50 mg QD. If ≤ 2 patients experienced a DLT during the first 5 weeks of treatment, enrollment into cohort 2 (motesanib 75 mg BID) and cohort 3 (motesanib 125 mg QD) began simultaneously. If ≤ 2 patients in cohort 3 experienced a DLT in the first 5 weeks of treatment, the 125-mg QD dose would be considered the target once-daily dose.
# All adverse events were graded by the investigator according to National Cancer Institute Common Terminology Criteria for Adverse Events (CTCAE) version 3.0. All adverse events were classified according to relatedness to treatment and seriousness. […]
# [2] = test system: patients with advanced solid tumors; design: method as in PMID 17557949; details: monotherapy; cited from earlier work
# [3] = test system: cytochrome P450 (CYP) 3A4; details: cited from earlier work
# CYP1A2 = details: cited from earlier work
# [4] = test system: patients with solid tumours; design: method as in PMID 18971935; details: in combination with gemcitabine; cited from earlier work
smiles,measurement,setting,value
CC1(C)CNc2cc(NC(=O)c3cccnc3NCc3ccncc3)ccc21 [motesanib],"Patients with dose-limiting toxicities, all cohorts","[1]; human, in vivo, 5 weeks",11 patients
same,Maximum tolerated dose (MTD),[1]; in combination with erlotinib only (150 mg QD),125 mg QD
same,Maximum tolerated dose (MTD),[1]; in combination with gemcitabine (1000 mg/m^2 weekly) and erlotinib (100 mg QD),100 mg QD
same,Maximum tolerated dose (MTD),[2],125 mg QD
same,Effect on CYP3A4,[3],inhibitor
same,Effect on CYP1A2,CYP1A2,inducer
same,Target dose,[4],125 mg QD
